From patent US20260007634A1, “PHARMACEUTICAL COMPOSITIONS FOR THE TREATMENT OF ALLERGIC DISEASES” (KINKI UNIVERSITY, priority 2022, published 2026)

Columns and labels:
Th17 cells = experiment: Th17 cell activation in inflammation-induced mouse model (IL-17A flow cytometry); type: in vivo; conditions: DBA/1J mice, Freund's complete adjuvant + bovine type2 collagen; oral 10 mg/kg daily 20 days; thymus cells; vs vehicle group
Description: Equal volume mixtures of Freund's complete adjuvant and Bovine type2 collagen were administered to 6-week-old male DBA/1J mice (Japan SLC Inc.) at 0.1 mL (day 0 of the study). 21 days later, DBA/1J mice were again injected with 0.1 mL of the above mixture for secondary immunization. After the second immunization, mice were orally treated with 10 mg/kg of mangiferin 8a and 10 mg/kg of norathyriol daily for 20 days. 20 days later, thymus glands were harvested from mice and stained with anti-CD4 and anti-IL-17A antibodies, which are Th17 cell markers, and expression of IL-17A (CD4 positive) was measured using BD LSRFortessa.

[1] = system: Monocytes collected from mice; experiment: LPS-induced macrophage activation (CD11b/F4/80 flow cytometry); type: cell-based, mouse; conditions: 10 μM compound, 10 μg/mL LPS, 10 days; control 6.38, LPS only 26.8
Description: Monocytes collected from mice were cultured in RPMI 1640 medium for 1 day. Then, 10 μM mangiferin 8a and 10 μM norathyriol were added to monocytes, and after 1 day of culture, 10 μg/mL of LPS was added, followed by 10 days of culture. After 10 days of culture, cells were stained with anti-CD11b and anti-F4/80 antibodies, markers of macrophages, and expression of CD11b and F4/80 was measured using BD LSRFortessa. Note that CD11b positive and F4/80 positive indicate activated macrophages.

IL-6 [2] = experiment: LPS-stimulated IL-6 secretion in B cells (ELISA); type: cell-based, mouse; conditions: 10 μM compound, 10 μg/mL LPS 2 days, control 9.46, LPS 246.13
Description: Mouse B cells were used to examine the inhibition of compounds on IL-6 secretion in LPS stimulation.
Mouse B cells were cultured in RPMI 1640 medium for 1 day. Then, 10 μM mangiferin 8a and 10 μM norathyriol were added to B cells, and after 1 day of culture, 10 μg/mL of LPS was added to each, followed by 2 days of culture.
Thus, the samples were divided into “control” with no treatment, “10 μg/mL LPS+10 μM mangiferin 8a” to which 10 μg/mL LPS and 10 μM mangiferin 8a were added, and “10 μg/mL LPS+10 μM norathyriol” to which 10 μg/mL LPS and 10 μM norathyriol were added and only 10 μg/mL LPS was added (“10 μg/L LPS”).
After these samples were incubated for 2 days, the culture supernatant was collected and IL-6 secretion was measured by enzyme-linked immunosorbent assay (ELISA). The mouse IL-6 ELISA kit (R&D) was used for this measurement.

IL-6 [3] = experiment: LPS-stimulated IL-6 secretion in macrophages (ELISA); type: cell-based, mouse; conditions: 10 μM compound, 10 μg/mL LPS 2 days, control 13.13, LPS 321.13
Description: Mouse macrophages were used to examine the inhibition of compounds on IL-6 secretion in LPS stimulation.
Mouse macrophages were cultured in RPMI 1640 medium for 1 day. Then, 10 μM mangiferin 8a and 10 μM norathyriol were added to macrophages, and after 1 day of culture, 10 μg/mL of LPS was added to each, followed by 2 days of culture. After these samples were incubated for 2 days, the culture supernatant was collected and IL-6 secretion was measured by enzyme-linked immunosorbent assay (ELISA). The mouse IL-6 ELISA kit (R&D) was used for this measurement.

NF-κB p52 = experiment: BAFF-stimulated B cells, nuclear NF-κB p52 (Western blotting); type: cell-based, mouse; conditions: vs 100 ng/mL BAFF; 100 μM mangiferin, 20 μM 1,3,5,6-tetrahydroxyxanthone, 10 μM others
Description: Spleens were harvested from 6-week-old male Balb/c mice and B cells were isolated. After isolation, the cells were seeded in […] dish and cultured in RPMI 1640 medium for 1 day and used as control. In addition, B cells were seeded into 100 mm^2 dish, and after 1 day of culture, 100 ng/mL BAFF was added and cultured for 1 h. Furthermore, B cells were seeded in […] dish, and after 1 day of culture, 100 μM mangiferin, 10 μM mangiferin 8a, 10 μM norathyriol, 20 μM 1,3,5,6-tetrahydroxyxanthone, 10 μM xanthohydrol, 10 μM of α-mangostin, and 10 μM of γ-mangostin were added to B cells, and after 23 h, 100 ng/mL BAFF was added to each, and the cells were incubated for 1 h. All were incubated at 37° C. and 5% CO2.
Proteins were extracted with cell lysate and used as samples. Each sample was transferred to a PVDF membrane after SDSPAGE and assayed with anti-phospho-NIK, anti-NIK, anti-NF-κB p52, anti-NF-κB p65 and anti-Lamin antibodies.
The antibody species is indicated in the vertical direction. Specifically, in the case of anti-phospho-NIK antibody (described as “Phospho-NIK”), anti-NIK antibody (described as “NIK”), anti-NF-κB p52 antibody (described as “NF-κB p52 nuclear”), anti-NF-κB p65 antibody (described as “NF-κB p65 nuclear”) and anti-Lamin antibody (described as “Lamin”).

## O=c1c2cc(O)c(O)cc2oc2cc(O)cc(O)c12 [norathyriol, 1,3,6,7-tetrahydroxyxanthone]
Th17 cells
  IL-17A expression (CD4 positive): markedly reduced
[1]
  CD11b positive and F4/80 positive population (activated macrophages): 11.6%
IL-6 [2]
  IL-6 secretion: 56.13 pg/mL
IL-6 [3]
  IL-6 secretion: 64.13 pg/mL
NF-κB p52
  nuclear NF-κB p52 band (immunoblotting): fainter
